In brackets after ≈: the same amount, converted by molar mass. Several values for one entry are separate records, joined by “and”; a condition that tells them apart may be missing. Equal values may be shown once. Read-outs that look alike come from different tables or passages of the source.
Tests used:
MRSA = assay: Broth microdilution MIC, Example 7 (NCL812 and analogues); type: cell-based, Staphylococcus aureus; settings: for activity against MRSA among analogues: MIC testing, two MRSA strains; for MIC: Staphylococcus aureus; for MIC / MRSA: MRSA
Method in brief: (§1)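 Duplicates per isolate, repeated a third time if >one two-fold dilution apart. MIC50, MIC20 and range calculated per bacterial group.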

VRE = assay: as above; type: cell-based, Enterococcus spp.; settings: for activity against VRE among analogues: MIC testing, two VRE strains; for MIC: Enterococcus; for MIC / VRE: VRE
Method in brief: as §1

Escherichia coli = assay: as above; type: cell-based; settings: 24 hours; for MIC: Escherichia coli
Pseudomonas aeruginosa = assay: as above; type: cell-based; settings: for MIC: Pseudomonas aeruginosa, 24 h
[1] = Bioassay ranking of the analogues tested; settings: M + R (MRSA and VRE combined)
[2] = 24 h, read-out: MIC (μg/ml) at 24 hours MRSA 1, MRSA 1, 24 hours
[3] = 24 h, read-out: MIC (μg/ml) at 24 hours MRSA 2, MRSA 2, 24 hours
[4] = bioassay ranking, read-out: MRSA
[5] = 24 h, read-out: MIC (μg/ml) at 24 hours VRE 1, VRE 1, 24 hours
[6] = 24 h, read-out: MIC (μg/ml) at 24 hours VRE 2, VRE 2, 24 hours
[7] = bioassay ranking, read-out: VRE
[8] = read-out: MIC (μg/ml) at 24 hours E. coli, E. coli
[9] = read-out: MIC (μg/ml) at 24 hours P. aeruginosa, P. aeruginosa, 24 hours

SMILES | activity against MRSA among analogues (MRSA) | MIC (μg/ml) at 24 hours, MRSA 1 (MRSA; MRSA 1, 24 hours) | MIC (μg/ml) at 24 hours, MRSA 2 (MRSA; MRSA 2, 24 hours) | activity against VRE among analogues (VRE) | MIC (μg/ml) at 24 hours, VRE 1 (VRE; VRE 1, 24 hours) | MIC (μg/ml) at 24 hours, VRE 2 (VRE; VRE 2, 24 hours) | MIC (μg/ml) at 24 hours, E. coli (Escherichia coli; E. coli) | MIC (μg/ml) at 24 hours, P. aeruginosa (Pseudomonas aeruginosa; P. aeruginosa, 24 hours) | M + R [1] | MIC (MRSA; [2]) | MIC (MRSA; [3]) | MIC (MRSA; [4]) | MIC (VRE; [5]) | MIC (VRE; [6]) | MIC (VRE; [7]) | MIC (Escherichia coli; [8]) | MIC (Pseudomonas aeruginosa; [9]) | MRSA (MRSA; bioassay ranking) | VRE (VRE; bioassay ranking) | further results
Cl.Cl.Nc1nc(N/N=C/C2CCCCC2)cc(N/N=C/C2CCCCC2)n1 [NCL203] | greatest activity | 32 µg/mL | 64 µg/mL | greatest activity | 32 µg/mL and 64 µg/mL | 32 µg/mL | >128 µg/mL | >128 µg/mL | 44 µg/mL |  |  |  |  |  |  |  |  |  |  | 
C/C(=N\NC(=N)N/N=C(\C)c1ccc(C)cc1)c1ccc(C)cc1.Cl [NCL217] | greatest activity |  |  | greatest activity |  |  |  |  | 3.5 µg/mL | 4 µg/mL | 4 µg/mL | 4 µg/mL | 2 µg/mL | 4 µg/mL | 3 µg/mL | > 128 µg/mL | > 128 µg/mL |  |  | 
Cl.N=C(N/N=C/c1ccc(Cl)cc1F)N/N=C/c1ccc(Cl)cc1F [NCL216] | greatest activity | 2 µg/mL and 4 µg/mL | 2 µg/mL | greatest activity | 2 µg/mL | 4 µg/mL | >128 µg/mL | >128 µg/mL | 2.75 µg/mL |  |  |  |  |  |  |  |  | 2.5 µg/mL | 3 µg/mL | 
Cl.N=C(N/N=C/c1ccc(F)cc1)N/N=C/c1ccc(Cl)cc1 [NCL079] | greatest activity |  |  | greatest activity |  |  |  |  | 4 µg/mL |  |  | 5 µg/mL |  |  | 3 µg/mL |  |  |  |  | MIC (μg/ml) at 24 hours, MRSA 2 (MRSA; MRSA 2, 24 hours, duplicate lines per compound): 8 µg/mL; MIC (MRSA; 24 h, read-out: MIC (μg/ml) at 24 hours, MRSA 1, MRSA 1, 24 hours, duplicate lines per compound): 4 µg/mL; MIC (MRSA; 24 h, read-out: MIC (μg/ml) at 24 hours, MRSA 2, MRSA 2, 24 hours, duplicate lines per compound): 4 µg/mL; MIC (VRE; 24 h, read-out: MIC (μg/ml) at 24 hours, VRE 1, VRE 1, 24 hours, duplicate lines per compound): 2 µg/mL; MIC (VRE; 24 h, read-out: MIC (μg/ml) at 24 hours, VRE 2, VRE 2, 24 hours, duplicate lines per compound): 4 µg/mL; MIC (Escherichia coli; read-out: MIC (μg/ml) at 24 hours, E. coli, duplicate lines per compound): > 128 µg/mL; MIC (Pseudomonas aeruginosa; read-out: MIC (μg/ml) at 24 hours, P. aeruginosa, 24 hours, duplicate lines per compound): > 128 µg/mL
Cl.N=C(NN=Cc1cccc(F)c1)NN=Cc1cccc(F)c1 [NCL023] | greatest activity |  |  | greatest activity |  |  |  |  | 20 µg/mL |  |  |  |  |  |  |  |  | 16 µg/mL | 24 µg/mL | MIC (μg/ml) at 24 hours, MRSA 1 (MRSA; isolate MRSA 1, 24 hours, 1st and 2nd replicate rows): 16 µg/mL; MIC (μg/ml) at 24 hours, MRSA 2 (MRSA; isolate MRSA 2, 24 hours, 1st and 2nd replicate rows): 16 µg/mL; MIC (μg/ml) at 24 hours, VRE 1 (VRE; isolate VRE 1, 24 hours, 1st and 2nd replicate rows): 32 µg/mL; MIC (μg/ml) at 24 hours, VRE 2 (VRE; isolate VRE 2, 24 hours, 1st and 2nd replicate rows): 16 µg/mL; MIC (μg/ml) at 24 hours, E. coli (Escherichia coli; 1st and 2nd replicate rows): >128 µg/mL; MIC (μg/ml) at 24 hours, P. aeruginosa (Pseudomonas aeruginosa; 24 hours, 1st and 2nd replicate rows): >128 µg/mL
Nc1nc(N/N=C/c2ccc(C(F)(F)F)cc2)cc(N/N=C/c2ccc(C(F)(F)F)cc2)n1 [NCL221] | greatest activity |  |  | greatest activity |  |  |  |  | 33.5 µg/mL | 4 µg/mL (≈ 8.56 µM) | 2 µg/mL (≈ 4.28 µM) | 3 µg/mL (≈ 6.42 µM) | 64 µg/mL (≈ 137 µM) | 64 µg/mL (≈ 137 µM) |  | > 128 µg/mL | > 128 µg/mL |  |  | 
CC(=NNC(=N)NN=C(C)c1ccc(Cl)cc1F)c1ccc(Cl)cc1F.Cl [NCL215] | greatest activity | 8 µg/mL and 16 µg/mL | 8 µg/mL | greatest activity | 2 µg/mL and 4 µg/mL | 4 µg/mL and 8 µg/mL | >128 µg/mL | >128 µg/mL | 7.25 µg/mL |  |  |  |  |  |  |  |  | 10 µg/mL | 4.5 µg/mL | 
Nc1nc(N/N=C/c2ccc(Br)cc2)cc(N/N=C/c2ccc(Br)cc2)n1 [NCL193] | greatest activity |  | 4 µg/mL (≈ 8.18 µM) | greatest activity |  | 8 µg/mL (≈ 16.4 µM) |  |  | 3.75 µg/mL | 2 µg/mL (≈ 4.09 µM) | 2 µg/mL (≈ 4.09 µM) | 2.5 µg/mL (≈ 5.11 µM) | 4 µg/mL (≈ 8.18 µM) | 4 µg/mL (≈ 8.18 µM) | 5 µg/mL (≈ 10.2 µM) | > 128 µg/mL | > 128 µg/mL |  |  | 

Source: patent US10253002B2, “Compounds and methods of treating infections” (Neoculi Pty Ltd., priority 2013, dated 2019)
